Here are results for 10 molecules from patent US11999759B2, “Boronic acid derivatives and therapeutic uses thereof” (Qpex Biopharma, Inc., priority 2016, dated 2024).

Data set [1] deals with CTX-M-14 (Escherichia coli, UniProt Q9L5C7). Kind of data set: Inhibition of nitrocefin cleavage by purified CTX-M-14. The format is biochemical. The settings on record: nitrocefin reporter substrate; 10 min preincubation at room temperature; read-out: Ki (CTX-M-14, NCF). On the procedure:
(§1) Ki values of inhibition of purified class A, C and D enzymes were determined spectrophotometrically using nitrocefin as reporter substrate. Purified enzymes were mixed with various concentrations of inhibitors in reaction buffer and incubated for 10 min at room temperature. Nitrocefin was added and substrate cleavage profiles were recorded at 490 nm every 10 sec for 10 min.

The target in data set [2] is KPC-2 (Klebsiella pneumoniae, UniProt Q9F663). Kind of data set: Inhibition of nitrocefin cleavage by purified KPC-2. The data set is classed as biochemical. Particulars: nitrocefin reporter substrate; 10 min preincubation at room temperature; read-out: Ki (KPC-2, NCF). On the procedure:
(§2) Ki values of inhibition of purified class A, C and D enzymes were determined spectrophotometrically using nitrocefin as reporter substrate. Purified enzymes were mixed with various concentrations of inhibitors in reaction buffer and incubated for 10 min at room temperature. Nitrocefin was added and substrate cleavage profiles were recorded at 490 nm every 10 sec for 10 min. These experiments confirmed that the described compounds are inhibitors with a broad-spectrum of activity towards various β-lactamases.

Data set [3] addresses P99 (Enterobacter cloacae, UniProt P05364). Kind of data set: biochemical. Particulars: nitrocefin reporter substrate; 10 min preincubation at room temperature; read-out: Ki (P99, NCF). The procedure:
as §1

In data set [4] the target is Pa-AmpC (Pseudomonas aeruginosa, UniProt P24735). Kind of data set: biochemical. The procedure: as §1
Chain of Pa-AmpC (P24735 27-397): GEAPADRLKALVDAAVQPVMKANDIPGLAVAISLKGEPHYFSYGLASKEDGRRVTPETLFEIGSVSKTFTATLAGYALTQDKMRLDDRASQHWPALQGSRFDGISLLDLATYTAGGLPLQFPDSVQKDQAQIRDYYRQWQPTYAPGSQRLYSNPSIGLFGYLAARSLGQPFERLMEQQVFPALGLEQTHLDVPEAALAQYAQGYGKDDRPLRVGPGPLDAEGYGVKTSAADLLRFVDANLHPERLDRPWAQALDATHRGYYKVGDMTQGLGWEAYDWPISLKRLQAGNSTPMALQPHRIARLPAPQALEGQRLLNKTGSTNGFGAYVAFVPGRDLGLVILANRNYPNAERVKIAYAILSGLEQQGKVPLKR
The target of data set [5] is OXA-48 (Klebsiella pneumoniae, UniProt Q6XEC0). The experiment in a line: Inhibition of nitrocefin cleavage by purified OXA-48. The data set is classed as biochemical. Particulars: nitrocefin reporter substrate; 10 min preincubation at room temperature; read-out: Ki (OXA-48, NCF). The procedure: as §2
Chain of OXA-48 (Q6XEC0 23-265, looked up): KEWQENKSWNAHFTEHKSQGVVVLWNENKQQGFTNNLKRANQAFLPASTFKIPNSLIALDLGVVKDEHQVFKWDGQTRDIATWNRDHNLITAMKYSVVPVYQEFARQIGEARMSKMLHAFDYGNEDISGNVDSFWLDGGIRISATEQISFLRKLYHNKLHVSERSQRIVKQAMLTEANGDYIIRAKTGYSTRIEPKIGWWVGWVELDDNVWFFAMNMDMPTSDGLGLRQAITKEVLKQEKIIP
Data set [6] deals with OXA-23 (Acinetobacter baumannii, UniProt Q9L4P2). The experiment in a line: Inhibition of nitrocefin cleavage by purified OXA-23. The data set is classed as biochemical. The settings on record: nitrocefin reporter substrate; 10 min preincubation at room temperature; read-out: Ki (OXA-23, NCF). On the procedure: as §2
Chain of OXA-23 (Q9L4P2 18-273): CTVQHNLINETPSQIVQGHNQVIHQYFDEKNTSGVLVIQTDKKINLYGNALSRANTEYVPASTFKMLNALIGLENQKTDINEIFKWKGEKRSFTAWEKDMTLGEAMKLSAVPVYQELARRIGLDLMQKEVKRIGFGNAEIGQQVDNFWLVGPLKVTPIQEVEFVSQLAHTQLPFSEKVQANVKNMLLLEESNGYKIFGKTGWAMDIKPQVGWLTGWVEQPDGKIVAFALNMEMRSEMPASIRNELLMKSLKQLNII
For data set [7], the target named is VIM-1 (Pseudomonas aeruginosa, UniProt A0A0F7KYQ8). Kind of data set: Inhibition of nitrocefin cleavage by purified VIM-1. The format is biochemical. Particulars: nitrocefin reporter substrate; 10 min preincubation at room temperature; read-out: Ki (VIM-1, NCF).
Data set [8] deals with IMP-1 (Serratia marcescens, UniProt P52699). The experiment in a line: Inhibition of imipenem cleavage by purified IMP-1. The format is biochemical. Particulars: imipenem reporter substrate; 37° C.; read-out: Ki (IMP-1, IMI). On the procedure: Ki values of inhibition of purified class B enzymes NDM-1 and IMP-1 were determined spectrophotometrically using imipenem as reporter substrate. Purified enzymes were mixed with various concentrations of inhibitors in reaction buffer and incubated for 10 min at room temperature. Imipenem was added and substrate cleavage profiles were recorded at 294 nm every 30 seconds for 30 minutes at 37° C. These experiments further confirmed that the described compounds have the ability to inhibit carbapenemase activity of metallo-beta-lactamases.
Chain of IMP-1 (P52699 19-246, looked up, species assumed): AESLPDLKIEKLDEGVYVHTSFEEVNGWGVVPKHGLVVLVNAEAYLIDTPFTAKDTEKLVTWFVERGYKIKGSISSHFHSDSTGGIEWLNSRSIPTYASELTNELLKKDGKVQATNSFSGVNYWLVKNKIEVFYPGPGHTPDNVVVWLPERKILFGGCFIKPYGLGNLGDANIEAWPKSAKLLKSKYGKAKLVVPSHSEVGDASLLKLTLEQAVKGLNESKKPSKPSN

The subject of data set [9] is PAM1032/KPC-2 (overexpressed MexAB-OprM). Kind of data set: Biapenem potentiation (MPC64) in PAM1032/KPC-2. The format is cell-based, Pseudomonas aeruginosa. On the set-up: PAM1032/KPC-2 Biapenem MPC64: unit not given here. Particulars: BLI potency to decrease biapenem MIC 64-fold, from 32 to 0.5 μg/ml; efflux proficient strain. On the procedure: (§3) Efflux of BLIs from Pseudomonas aeruginosa by the MexAB-OprM efflux pump was also evaluated. The plasmid expressing the gene encoding KPC-2 was introduced into two strains of P. aeruginosa, PAM1032 and PAM1154 that overexpressed or lacked MexAB-OprM, respectively. Due to expression of KPC-2 both strains became resistant to biapenem. […] Potency of BLIs to potentiate biapenem in these strains was determined. […] The ratio of MPC64 values for each BLI in PAM1032/KPC-2 (efflux proficient) and PAM1154/KPC-2 (efflux deficient) was determined to generate the Efflux Index (EI) as shown in Table 8.

For data set [10], the system named is PAM1154/KPC-2 (lacked MexAB-OprM). Kind of data set: Biapenem potentiation (MPC64) in PAM1154/KPC-2. The settings on record: BLI potency to decrease biapenem MIC 64-fold, from 32 to 0.5 μg/ml; efflux deficient strain. On the set-up: PAM1154/KPC-2 Biapenem MPC64: unit not given here. The format is cell-based, Pseudomonas aeruginosa. On the procedure:
as §3

Data set [11] in a line: Stability of compound 13 prodrugs in human liver microsomes (HLM). The data set is classed as in vitro ADME. Particulars: 0.500 mg/mL human liver microsomes, no cofactors, prodrug 1.00 μM; for half-life at 1 μM: pH 7.4, read-out: Estimated half-life (minutes) (rounded to nearest integer value). The procedure:
In the meantime, a 20.0 mg/mL solution of human liver microsomes (XenoTech, LLC) was diluted to 1.00 mg/mL (2× final concentration). Esterase activity for each lot of microsomes used was established by assaying an unrelated ester prodrug as a control. Both the Eppendorfs for each timepoint and the diluted liver microsomes were then warmed to 37° C. in a water bath. No cofactors (e.g. NADPH) were added to ensure that only hydrolytic reactions as opposed to reactions mediated by other cofactor-dependent enzymes (e.g. CYP450 enzymes) would take place. To initiate the reaction, 50 μL of diluted human liver microsomes was added to tubes for all timepoints using a repeating-tip pipette, thereby bringing the final concentration of test compound to 1.00 μM and the final concentration of human liver microsomes to 0.500 mg/mL. At each timepoint, the reaction was halted and proteins precipitated through the addition of 200 μL of 10:45:45 water:methanol:acetonitrile v/v/v containing an unrelated ester prodrug at 250 ng/mL as an internal standard. […] Sample analysis for microsome stability experiments was conducted using a 20.0 μL injection on a LEAP PAL autosampler with Agilent 1100 binary pump HPLC coupled to an AB Sciex 3200 QTrap mass spectrometer. […] Detection was in positive mode; source parameters and parent-daughter ion selection criteria were chosen as needed for each compound to achieve an appropriate limit of detection and signal-to-noise ratio. The samples were analyzed together with appropriate blanks in order to ensure specificity. The rate of hydrolysis for each prodrug was determined by monitoring the concentration of test compound as follows. The peak area for the analyte was divided by the peak area for the internal standard to give an area ratio. The area ratio for each of the two replicates at each timepoint was divided by the area ratio for timepoint 0 to give the percent remaining at each timepoint. The natural logarithm of the percent remaining versus time for all replicates was plotted using Microsoft Excel and fitted to a linear trendline.

In data set [12] the target is NDM-1 (Klebsiella pneumoniae, UniProt C7C422). Kind of data set: Inhibition of imipenem cleavage by purified NDM-1. The data set is classed as biochemical. The settings on record: imipenem reporter substrate; 37° C.; read-out: Ki (NDM-1, IMI). On the procedure:
Purified enzymes were mixed with various concentrations of inhibitors in reaction buffer and incubated for 10 min at room temperature. Imipenem was added and substrate cleavage profiles were recorded at 294 nm every 30 seconds for 30 minutes at 37° C.

[13] abbreviates: nitrocefin reporter substrate, 10 min preincubation at room temperature, read-out: Ki (Pa-AmpC, NCF).

Each structure is given as a SMILES string. Where two headings read alike, the source gives them in different places.

Chain of P99 (P05364 21-381): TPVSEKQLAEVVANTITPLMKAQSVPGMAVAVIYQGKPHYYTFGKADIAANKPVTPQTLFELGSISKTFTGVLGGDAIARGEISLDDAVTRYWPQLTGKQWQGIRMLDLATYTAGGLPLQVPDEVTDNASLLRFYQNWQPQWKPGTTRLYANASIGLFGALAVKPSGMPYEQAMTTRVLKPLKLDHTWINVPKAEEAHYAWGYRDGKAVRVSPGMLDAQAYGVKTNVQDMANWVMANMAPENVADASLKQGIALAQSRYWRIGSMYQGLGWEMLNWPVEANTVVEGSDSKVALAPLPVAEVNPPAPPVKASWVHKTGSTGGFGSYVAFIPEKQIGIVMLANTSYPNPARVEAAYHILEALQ
Chain of CTX-M-14 (Q9L5C7 29-291, species assumed): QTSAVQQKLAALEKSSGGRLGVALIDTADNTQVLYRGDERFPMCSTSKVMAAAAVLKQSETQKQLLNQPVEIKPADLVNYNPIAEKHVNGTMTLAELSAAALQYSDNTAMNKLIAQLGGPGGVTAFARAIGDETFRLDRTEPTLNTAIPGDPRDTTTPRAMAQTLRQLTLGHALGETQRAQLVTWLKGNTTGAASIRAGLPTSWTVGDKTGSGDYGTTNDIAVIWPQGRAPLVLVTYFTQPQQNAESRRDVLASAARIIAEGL
Chain of NDM-1 (C7C422 29-270, looked up, species assumed): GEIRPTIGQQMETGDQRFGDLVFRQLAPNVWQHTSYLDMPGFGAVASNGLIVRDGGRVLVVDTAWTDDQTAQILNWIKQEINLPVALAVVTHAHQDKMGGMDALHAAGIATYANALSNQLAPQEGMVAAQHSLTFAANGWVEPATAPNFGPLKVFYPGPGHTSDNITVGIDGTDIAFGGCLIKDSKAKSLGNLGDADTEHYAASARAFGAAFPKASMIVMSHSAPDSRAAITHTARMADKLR
Chain of KPC-2 (Q9F663 25-293 limits assumed): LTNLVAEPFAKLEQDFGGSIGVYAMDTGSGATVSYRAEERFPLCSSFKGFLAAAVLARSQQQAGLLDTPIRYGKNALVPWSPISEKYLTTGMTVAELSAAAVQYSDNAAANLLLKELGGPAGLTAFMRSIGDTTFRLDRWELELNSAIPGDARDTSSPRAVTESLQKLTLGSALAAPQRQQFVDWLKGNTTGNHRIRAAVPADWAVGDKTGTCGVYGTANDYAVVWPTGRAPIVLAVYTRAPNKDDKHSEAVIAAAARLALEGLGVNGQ

With `COc1ccc2c(c1C(=O)O)OB(O)C(F)=C2` [Compound 8, 3-Fluoro-2-hydroxy-7-methoxy-1,2-benzoxaborinine-8-carboxylic acid], the Ki in [1], in data set [2], in [3], in data set [4] (setting [13]), in data set [5] and in data set [6] was < 100 nM in each case. Besides, the Ki is 100 to 1000 nM in data set [7] and > 1000 nM in data set [8]. Moreover, the “PAM1032/KPC-2 Biapenem MPC64” value in [9] was determined as 2.5. The “PAM1154/KPC-2 Biapenem MPC64” value in data set [10] stood at 2.5.

Turning to `CCCC(=O)OCOC(=O)c1c(F)ccc2c1OB(O)[C@@H]1C[C@H]21` [Compound 26, Butanoyloxymethyl (1aR,7bS)-5-fluoro-2-hydroxy-1a,7b-dihydro-1H-cyclopropa[c][1,2]benzoxaborinine-4-carboxylate], in data set [11], the “Average % of initial area ratio at t = 0 min” value is 100%, the “Average % of initial area ratio at t = 5 min” value turned out to be 73.4%, the “Average % of initial area ratio at t = 10 min” value was 55.9% and the “Average % of initial area ratio at t = 30 min” value was 11.9%. Further, in [11], the half-life at 1 μM is 10 min.

`C[C@]1(Cn2ccnn2)[C@H](C(=O)O)N2C(=O)C[C@H]2S1(=O)=O` [Tazobactam, reference compound]: the Ki is > 1000 nM in data set [2]; 100 to 1000 nM in [5]; 100 to 1000 nM in [6]; > 1000 nM in data set [7]; > 1000 nM in data set [12]; > 1000 nM in data set [8].

In the case of `COc1ccc2c(c1C(=O)O)OB(O)C1=C2COC1` [Compound 24, 4,4-dihydroxy-7-methoxy-1,3-dihydrofuro[3,4-c][1,2]benzoxaborinine-6-carboxylic acid], the Ki in data set [1], in data set [2], in data set [3], in data set [4] (setting [13]), in data set [5] and in [6] was < 100 nM in each case. Further, the Ki in [7] is > 1000 nM; in [12], 100 to 1000 nM; in data set [8], > 1000 nM.

Regarding `O=C(O)[C@H]1/C(=C/CO)O[C@@H]2CC(=O)N21` [Clavulanic Acid, reference compound], the Ki in data set [1] is < 100 nM; in [2] it was > 1000 nM; in data set [4], > 1000 nM; in data set [5], > 1000 nM; in [6], > 1000 nM; in data set [7], > 1000 nM. For the same molecule, the Ki in data set [12] and in data set [8] was > 1000 nM each time.

As for `O=C(O)c1c(F)ccc2c1OB(O)C1CC21` (stereo not drawn) [Compound 4, 5-Fluoro-2-hydroxy-1a,7b-dihydro-1H-cyclopropa[c][1,2]benzoxaborinine-4-carboxylic acid], the Ki in data set [1], in data set [2], in data set [3], in data set [4] (setting [13]), in [5] and in data set [6] was < 100 nM throughout. Besides, the Ki in data set [7] was 100 to 1000 nM; in [8], > 1000 nM. Further, the “PAM1032/KPC-2 Biapenem MPC64” value in data set [9] stood at 2.5. Besides, in data set [10], the “PAM1154/KPC-2 Biapenem MPC64” value was 2.5.

As for `O=C(OCOC(=O)C1CC1)c1c(F)ccc2c1OB(O)[C@@H]1C[C@H]21` [Compound 27], in data set [11], the “Average % of initial area ratio at t = 0 min” value was determined as 100%, the “Average % of initial area ratio at t = 5 min” value is 91.4%, the “Average % of initial area ratio at t = 10 min” value is on record as 80.4% and the “Average % of initial area ratio at t = 30 min” value stood at 25.0%. The half-life at 1 μM in [11] is 14 min.

Regarding `O=C(O)c1nccc2c1OB(O)[C@@H]1C[C@H]21` [Compound 21, (1aR,7bS)-2-hydroxy-1a,7b-dihydro-1H-cyclopropa[6,7]oxaborinino[2,3-c]pyridine-4-carboxylic acid], the Ki in [1] was < 100 nM; in data set [2] it was 100 to 1000 nM; in [3], 100 to 1000 nM; in data set [4] (setting [13]) it was > 1000 nM; in data set [5], < 100 nM; in data set [6] it was < 100 nM. Besides, the Ki in data set [7] and in data set [12] was 100 to 1000 nM in each case. For the same molecule, the “PAM1032/KPC-2 Biapenem MPC64” value in [9] is given as 1.25. In addition, the “PAM1154/KPC-2 Biapenem MPC64” value in data set [10] was 1.25.

For `CC(=O)OCOC(=O)c1c(F)ccc2c1OB(O)[C@@H]1C[C@H]21` [Compound 28, Acetoxymethyl (1aR,7bS)-5-fluoro-2-hydroxy-1a,7b-dihydro-1H-cyclopropa[c][1,2]benzoxaborinine-4-carboxylate], in data set [11], the “Average % of initial area ratio at t = 0 min” value was found to be 100%, the “Average % of initial area ratio at t = 5 min” value turned out to be 50.8%, the “Average % of initial area ratio at t = 10 min” value was found to be 23.3% and the “Average % of initial area ratio at t = 30 min” value came to 19.6%. For the same molecule, the half-life at 1 μM in [11] was 15 min.

As to `O=C(O)c1nccc2c1OB(O)[C@H]1C[C@@H]21` [Compound 20, (1aS,7bR)-2-hydroxy-1a,7b-dihydro-1H-cyclopropa[6,7]oxaborinino[2,3-c]pyridine-4-carboxylic acid], the Ki in [1] is < 100 nM; in data set [2], 100 to 1000 nM; in [3], > 1000 nM; in [4] (setting [13]), > 1000 nM; in [5], < 100 nM; in data set [6], 100 to 1000 nM. Moreover, the Ki in data set [7] and in data set [12] was > 1000 nM in each case. Moreover, in [9], the “PAM1032/KPC-2 Biapenem MPC64” value was determined as 5. In data set [10], the “PAM1154/KPC-2 Biapenem MPC64” value was found to be 5.

By Ki is commonly meant the dissociation constant of the complex between target and ligand, obtained from inhibition or displacement. The term half-life denotes how long it takes for the measured level to halve.
